Results taken from paper PMC5556071, “ATR inhibition facilitates targeting of leukemia dependence on convergent nucleotide biosynthetic pathways” (Nature Communications, 2017).
Several values for one entry are separate records, joined by “and”; a condition that tells them apart may be missing. Equal values may be shown once.

System: CEM cells
Experiment: Non-targeted LC-MS metabolite profiling: percent [13C6]glucose labeling and relative metabolite levels
Format: cell-based, human
Settings: CEM cells, 12 h following release from G1 arrest, replicates #1-#6
Source text: To further investigate the functions of dCK and ATR at the G1/S transition in CEM cells, a non-targeted liquid chromatography mass spectrometry (LC-MS) assay was used to determine the utilization of labeled [^13C6]glucose and [^13C9,^15N3]deoxycytidine, the main substrates for de novo and salvage nucleotide biosynthesis, respectively. Of the 166 metabolites identified in CEM cells treated with VE-822 and/or dCKi, 105 metabolites found in all four treatment groups contained glucose-derived ^13C atoms. […] These metabolites included intermediates such as rUTP, rCTP and rCDP in the de novo dCTP biosynthesis (Fig. 1d). […] However, several deoxyribonucleotides, including dCTP, were below the limit of detection of the non-targeted LC-MS approach, raising the concern that the sensitivity of this assay is not sufficient to measure the contribution of the salvage pathway or the ratio of de novo and salvage biosynthesis to these pools. To address this problem, a newly developed targeted MS assay was developed (Fig. 1e and Supplementary Fig. 3). In this assay, samples containing either extracted dNTPs or hydrolyzed DNA from labeled cells are separated by LC for detection by a triple quadrupole mass spectrometer using multiple reaction monitoring (LC-MS/MS-MRM). The first (Q1) and third (Q3) quadrupoles function as mass filters, while the second (Q2) quadrupole serves as a collision chamber (Fig. 1e). For instance, to profile the biosynthetic composition of deoxycytidine (dC) derived from hydrolyzed DNA or dCTP, an intact, protonated dC ion is selected in Q1, followed by fragmentation of the glycosidic bond, which releases protonated cytosine in Q2, that is filtered in Q3 and detected to generate an ion chromatogram. The peak areas for the ion chromatograms of salvage [^13C9,^15N3]dC (red trace), de novo [^13C5]dC (black trace, from [^13C6]glucose) and unlabeled dC (gray trace) (Fig. 1e) are used to determine the relative contributions of the de novo and salvage routes both to dCTP pools and to DNA-incorporated dCTP.
Cells were transferred into RPMI-1640 without glucose and supplemented with 10% dialyzed FBS (Gibco) containing the following labeled substrates: precursors for de novo [U-^13C6]glucose (Sigma-Aldrich, 389374) at 11 mM; precursors for purine salvage [U-^13C10,^15N5]dA (Cambridge Isotopes, CIL 3896), [^15N5]dA (Cambridge Isotopes, NLM-3895) and [^15N5]dG (Cambridge Isotopes, NLM-3899) at 5 µM or as indicated; and precursors for pyrimidine salvage: [U-^13C9,^15N3]dC (Silantes, 124603602) and [U-^13C10,^15N2]dT (Cambridge Isotopes, CNLM-3902) at 5 µM and [^15N2]orotate (Cambridge Isotopes, NLM-1048) at indicated concentrations. The cells were incubated for 12 h or as indicated before sample collection and processing. […]
Non-targeted LC-MS metabolic assays. 1 x 10^6 cells were washed with ice-cold 150 mM ammonium acetate twice before adding 1 mL of ice-cold 80% methanol with 10 nM norvaline as an internal standard. After vigorous vortexing, samples were centrifuged at maximum speed, the aqueous layer was transferred to a glass vial and the metabolites were dried under vacuum. Metabolites were resuspended in 50 μL 70% acetonitrile (ACN) and 5 μL of this solution used for the mass spectrometer-based analysis. The analysis was performed on a Q Exactive (Thermo Scientific) in polarity-switching mode with positive voltage 4.0 kV and negative voltage 4.0 kV. The mass spectrometer was coupled to an UltiMate 3000RSLC (Thermo Scientific) UHPLC system. Mobile phase A was 5 mM ammonium acetate (NH4AcO), pH 9.9, B was acetonitrile and the separation achieved on a Luna […] NH2 100 A column (150 × 2.0 mm, Phenomenex). The flow was 200 μL/min, and the gradient ran from 15% A to 95% A in 18 min, followed by an isocratic step for 9 min and re-equilibration for 7 min. Metabolites were detected and quantified as area under the curve based on retention time and accurate mass (≤ 3 p.p.m.) using the TraceFinder 3.1 (Thermo Scientific). Relative amounts of […]

[1] = metabolite Asn (C00152), listed as D
[2] = metabolite Asp (C00049), listed as D
[3] = metabolite Carnitine (C00318), listed as D
[4] = metabolite G3P (KEGG C00118), listed as D
[5] = metabolite G6P-F6P (KEGG C00668), listed as D
[6] = metabolite GABA (KEGG C00334), listed as D
[7] = metabolite GDP (KEGG C00035), listed as D
[8] = metabolite GMP (KEGG C00144), listed as D
[9] = metabolite GSH (KEGG C00051), listed as D
[10] = metabolite GSSG (KEGG C00127), listed as D
[11] = metabolite GTP (KEGG C00044), listed as D
[12] = metabolite Glc (KEGG C00031), listed as D
[13] = metabolite GlcA (KEGG C00257), listed as D
[14] = metabolite GlcN-6P (KEGG C00352), listed as D
[15] = metabolite GlcNAc-6P (KEGG C00357), listed as D
[16] = metabolite Gln (KEGG C00064), listed as D
[17] = metabolite Glu (KEGG C00025), listed as D
[18] = metabolite GlucA (KEGG C00191), listed as D
[19] = metabolite Gly (KEGG C00037), listed as D
[20] = metabolite Glycerol (KEGG C00116), listed as D
[21] = metabolite Glycerol-2-P (KEGG C02979), listed as D
[22] = metabolite Glycerol-3-P (KEGG C00093), listed as D
[23] = metabolite His (KEGG C00135), listed as D
[24] = metabolite Homocysteine (KEGG C00155), listed as D
[25] = metabolite Hypoxanthine (KEGG C00262), listed as D
[26] = metabolite IMP (KEGG C00130), listed as D
[27] = metabolite Inosine (KEGG C00294), listed as D
[28] = metabolite a-KG (C00026), listed as D

COc1ccc(-c2nc([C@@H](C)Sc3nc(N)cc(N)n3)c(C)s2)cc1OCCNS(C)(=O)=O [dCKi]
Relative level, Arg-Succ (metabolite Arg-Succ (C03406), listed as D): 1.1 and 1.2 and 1.4 and 0.428 and 0.458 and 0.6
Glucose labeling, Asn [1]: 0.000993% and 2.77e-6% and 0.00524% and 0.00322% and 0.000183% and 2.2e-6%
Relative level, Asn [1]: 1.1 and 1.3 (2×) and 0.8 and 0.7 and 0.85
Glucose labeling, Asp [2]: 24.08% and 25.99% and 25.39% and 25.08% and 25.80% and 25.92%
Relative level, Asp [2]: 0.9 (3×) and 1.1 and 0.5 and 0.6
Glucose labeling, C (metabolite C (D07769), listed as D): 0.44% (4×) and 0.15% and 0.31%
Relative level, C (metabolite C, listed as D): 1.0 and 1.2 and 1.3 (2×) and 1.4 and 1.1
Glucose labeling, Carnitine [3]: 0.0041% and 0.00586% and 0.00566% and 0.00463% and 0.00467% and 0.00476%
Relative level, Carnitine [3]: 1.0 and 1.1 (2×) and 0.9 (2×) and 0.843
Glucose labeling of G3P [4]: 100.00% (3×) and 0.0369% (3×)
Relative level of G3P [4]: 0.316 and 1.2 and 0.237 and 0.232
Glucose labeling of G6P-F6P [5]: 57.18% and 69.30% and 72.35% and 21.95% and 56.24% and 64.94%
Relative level of G6P-F6P [5]: 0.6 and 0.7 and 1.0 and 0.163 and 0.339 and 0.4
Glucose labeling of GABA [6]: 0.0266% and 0.0568% and 0.0445% and 0.0322% and 0.0737% (2×)
Relative level of GABA [6]: 1.2 and 1.4 and 1.5 and 0.6 and 0.5 and 0.466
Glucose labeling of GDP [7]: 100.00% (2×) and 89.71% and 79.16% and 66.81% and 77.84%
Relative level of GDP [7]: 0.278 and 0.74 and 2.1 and 0.0943 and 0.533
Glucose labeling of GMP [8]: 82.17% and 84.38% and 86.57% and 100.00% and 55.56% and 83.28%
Relative level of GMP [8]: 1.0 (2×) and 2.5 and 0.177 and 0.7
Glucose labeling of GSH [9]: 24.91% and 25.95% and 26.01% and 22.52% and 20.58% and 22.91%
Relative level of GSH [9]: 0.8 and 1.1 and 1.4 and 0.2 and 0.245 and 0.4
Glucose labeling of GSSG [10]: 44.73% and 47.85% and 45.35% and 40.72% and 38.47% and 41.79%
Relative level of GSSG [10]: 1.0 (2×) and 1.3 and 1.5 and 0.364 and 0.7
Glucose labeling of GTP [11]: 88.53% and 93.02% and 84.10% and 100.00% and 95.85% and 82.17%
Relative level of GTP [11]: 0.137 and 0.6 and 1.3 and 0.0117 and 0.173 and 0.5
Glucose labeling of Glc [12]: 48.02% and 85.76% and 96.57% and 84.10% and 87.56% and 88.93%
Relative level of Glc [12]: 0.632 and 1.4 and 6.6 and 1.5 and 2.2 and 2.0
Glucose labeling of GlcA [13]: 38.48% and 42.08% and 42.11% and 29.34% and 32.69% and 34.11%
Relative level of GlcA [13]: 1.0 (2×) and 1.4 and 0.4 and 0.5 and 0.7
Glucose labeling of GlcN (metabolite GlcN (KEGG C00329)): 0.18%
Relative level of GlcN (metabolite GlcN (KEGG C00329), listed as D): 1.4 and 0.948 and 0.9 (2×) and 1.0 and 0.8
Glucose labeling of GlcN-6P [14]: 6.04% and 8.63% and 7.74% and 8.56% and 9.86% and 9.69%
Relative level of GlcN-6P [14]: 0.8 and 0.847 and 1.1 and 0.743 and 0.7 and 1.0
Glucose labeling of GlcNAc-6P [15]: 12.90% and 10.87% and 25.06% and 34.14% and 41.68% and 27.99%
Relative level of GlcNAc-6P [15]: 0.636 and 0.8 and 1.2 and 0.212 and 0.6 (2×)
Glucose labeling of Gln [16]: 0.24% and 0.28% (4×) and 0.29%
Relative level of Gln [16]: 1.0 (2×) and 1.2 and 1.3 and 0.9 (2×)
Glucose labeling of Glu [17]: 30.50% and 31.50% and 31.06% and 32.25% and 32.69% and 32.43%
Relative level of Glu [17]: 1.0 and 1.1 and 1.2 and 0.6 (2×) and 0.751
Glucose labeling of GlucA [18]: 0.47% and 1.38% and 1.95% and 0.76% and 1.61% and 0.18%
Relative level of GlucA [18]: 1.5 and 0.9 and 1.3 and 0.635 and 0.563 and 0.7
Glucose labeling of Gly [19]: 5.78% and 6.19% and 5.38% and 3.11% and 3.32% and 3.83%
Relative level of Gly [19]: 1.1 and 1.3 and 1.2 (2×) and 0.9 and 0.854
Glucose labeling of Glycerol [20]: 0.0257% and 0.0369% (2×) and 0.03% and 0.00165% and 0.0279%
Relative level of Glycerol [20]: 0.8 (2×) and 0.7 and 1.5 and 2.6 and 2.4
Glucose labeling of Glycerol-2-P [21]: 12.49% and 5.31% and 20.27% and 20.32% and 0.0369% and 11.49%
Relative level of Glycerol-2-P [21]: 0.6 and 0.5 and 1.9 and 0.0423 and 0.16 and 0.346
Glucose labeling of Glycerol-3-P [22]: 15.24% and 16.29% and 15.98% and 18.03% and 18.16% and 17.98%
Relative level of Glycerol-3-P [22]: 1.0 and 0.9 (2×) and 0.7 (2×) and 0.656
Glucose labeling of HS2O3 (metabolite HS2O3 (KEGG C00320)): 100.00%
Relative level of HS2O3 (metabolite HS2O3 (KEGG C00320), listed as D): 0.9 (2×) and 1.0 and 0.8 and 1.1 (2×)
Glucose labeling of His [23]: 0.00% (5×) and 1.11e-14%
Relative level of His [23]: 1.2 and 1.3 and 1.5 and 0.76 and 0.6 and 0.7
Glucose labeling of Homocysteine [24]: 0.022% and 0.0737% and 0.000309% and 0.01% and 0.000455% and 0.23%
Relative level of Homocysteine [24]: 2.7 and 0.5 and 1.5 (2×) and 3.4 and 0.855
Glucose labeling of Hypoxanthine [25]: 0.00941% and 0.12% (4×) and 0.06%
Relative level of Hypoxanthine [25]: 2.0 and 0.2 and 1.0 and 1.3 (2×) and 2.9
Glucose labeling of IMP [26]: 93.29% and 98.06% and 95.55% and 100.00% and 94.31% and 97.32%
Relative level of IMP [26]: 0.7 and 0.8 and 1.6 and 0.111 and 0.323 and 0.6
Glucose labeling of Inosine [27]: 0.55% (4×) and 100.00% and 49.07%
Relative level of Inosine [27]: 0.5 and 0.547 and 0.3 and 0.568 and 0.6
Glucose labeling of Inositol (metabolite Inositol (KEGG C00137)): 0.00%
Relative level of Inositol (metabolite Inositol (KEGG C00137), listed as D): 1.0 (2×) and 1.6 (2×) and 1.1 (2×)
Glucose labeling, a-KG [28]: 4.27% and 11.78% and 16.08% and 0.12% (2×) and 4.73%
Relative level, a-KG [28]: 0.7 and 1.1 and 2.3 and 0.0795 and 0.14 and 0.259
